One assay deals with T1, JAK3 (Homo sapiens, UniProt P52333).
T1 sequence (P52333 1-1124): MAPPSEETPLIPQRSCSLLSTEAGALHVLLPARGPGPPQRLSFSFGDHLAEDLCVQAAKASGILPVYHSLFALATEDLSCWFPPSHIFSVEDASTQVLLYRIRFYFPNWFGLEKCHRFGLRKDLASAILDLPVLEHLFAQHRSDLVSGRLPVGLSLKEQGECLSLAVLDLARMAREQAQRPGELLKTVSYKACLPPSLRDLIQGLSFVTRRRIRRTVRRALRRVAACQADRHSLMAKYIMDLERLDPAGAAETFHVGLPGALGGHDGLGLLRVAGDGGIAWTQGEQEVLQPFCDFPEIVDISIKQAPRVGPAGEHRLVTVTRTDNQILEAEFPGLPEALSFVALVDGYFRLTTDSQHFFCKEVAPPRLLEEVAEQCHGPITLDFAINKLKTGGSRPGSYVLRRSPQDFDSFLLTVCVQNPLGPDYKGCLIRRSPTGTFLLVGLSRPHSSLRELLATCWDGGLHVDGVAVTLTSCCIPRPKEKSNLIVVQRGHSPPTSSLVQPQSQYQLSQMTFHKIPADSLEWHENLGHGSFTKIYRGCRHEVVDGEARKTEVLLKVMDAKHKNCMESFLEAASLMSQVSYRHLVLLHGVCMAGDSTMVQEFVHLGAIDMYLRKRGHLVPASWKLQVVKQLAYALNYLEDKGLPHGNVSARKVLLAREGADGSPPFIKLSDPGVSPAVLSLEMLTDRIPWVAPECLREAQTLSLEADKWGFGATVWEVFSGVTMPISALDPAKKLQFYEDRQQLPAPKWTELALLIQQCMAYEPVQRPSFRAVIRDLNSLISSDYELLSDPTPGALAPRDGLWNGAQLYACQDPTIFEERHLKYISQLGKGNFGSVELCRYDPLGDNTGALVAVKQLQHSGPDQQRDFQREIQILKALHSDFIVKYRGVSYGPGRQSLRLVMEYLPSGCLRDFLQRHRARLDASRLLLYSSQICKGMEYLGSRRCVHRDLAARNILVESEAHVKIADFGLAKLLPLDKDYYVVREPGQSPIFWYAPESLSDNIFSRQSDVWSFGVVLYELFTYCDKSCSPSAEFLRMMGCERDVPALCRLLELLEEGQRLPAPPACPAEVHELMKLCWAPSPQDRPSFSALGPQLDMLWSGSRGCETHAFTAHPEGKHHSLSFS
The assay is described as follows: JAK LanthaScreen Kinase Assay (TR-FRET), JAK3. It counts as biochemical. The text has this: (§1) The JAK LanthaScreen™ Kinase Assay (Life Technologies, #PV4844) is used to determine compound IC50 values against the JAK1, JAK2, and JAK3 kinases. This kinase assay is a Time Resolved Fluorescence Resonance Energy Transfer (TR-FRET) assay format that uses long-lifetime terbium (Tb) labeled antibody as the donor species and Green Fluorescent Protein-Signal Transducers and Activators of Transcription (GFP-STAT1) as the acceptor species.
(§2) The TR-FRET ratio is used to monitor JAK1, JAK2, or JAK3 activity where an increase in phosphorylation of the GFP-STAT1 results in an increase in the TR-FRET ratio. Perform the kinase reaction using a 12.5 microliter reaction volume in shallow black 384-well Proxiplate (PerkinElmer, #6008260). […] Incubate at room temperature for 90 minutes, and read in an EnVision plate reader (PerkinElmer, #2104-0010) with 340 nm wavelength excitation filter and emission filters of 520 nm and 495 nm wavelengths. The ratio is derived from the emission wavelength for the GFP-STAT1 which is measured at 520 nanometer versus the emission at 495 nanometer for the Tb-anti-pSTAT1[pTyr701]. Derive the IC50 value for the compound using percent inhibition data, which is calculated from the reaction data relative to on-plate controls (active enzyme versus 2.0 micromolar control-inhibited enzyme). […]
Background: Time-resolved FRET reads energy transfer from a long-lived donor to a nearby acceptor.

The next assay addresses T2, JAK1 (Homo sapiens, UniProt P23458).
T2 construct: purchased Life Technologies #PV4844
The assay is described as follows: JAK LanthaScreen Kinase Assay (TR-FRET), JAK1. The assay is classed as biochemical. The following applies: enzyme assay, 20.0 micromolar ATP, n=3; read-out: IC50 against JAK1.
Description: as §1, §2

The subject of the next assay is IL-6-STAT3 signaling. Description: DS1-AlphaScreen-pSTAT3 cell-based assay. To be noted: DS1 cells, IL6 10 ng/ml; read-out: IC50, inhibits IL-6-STAT3 signaling (pSTAT3). As for the experimental part: The DS1-AlphaScreen-pSTAT3-cell-based assay is used to examine the potency of compounds at blocking the IL6-stimulated STAT3 pathway. The JAK-STAT3 pathway is constitutively active in many types of cancers and is implicated in tumor cells for increasing proliferation, survival, and invasion. DS1 cells (ATCC) are cultured in RPMI complete medium with 10% FBS and then adopted and grown in DMEM/High Modified medium supplemented with 10% FBS at 37° C. at 95% humidity and under an atmosphere of 5% CO2. DS1 cells are plated at a density of 4×10^4 cells/well in 96 well-plates and cultured in serum-free culture medium at 37° C. for three hours, followed by pre-treatment either with vehicle alone (DMSO) or test compounds across a range of final concentrations from 0-20 μM for 10 min. IL6 (R&D System, 206-IL) is then added into the cell culture at 10 ng/ml final concentration, which is continued for an additional 30 min at 37° C. Finally, cells are lysed with 5× alpha lysis buffer and transferred to a 384-well plate (PerkinElmer, #6008280) filled with the reaction mixture (TGR Biosciences, South Australia, Australia, #TGRS3S10K) for pSTAT3 detection (#TGRS3SHV100). The plates are sealed and incubated at room temperature for 2 hours, and pSTAT3 is measured by using an Envision06 plate reader (TGR Biosciences, South Australia, Australia). The data are analyzed with ActivityBase 4.0.

T2 sequence (P23458 whole entry): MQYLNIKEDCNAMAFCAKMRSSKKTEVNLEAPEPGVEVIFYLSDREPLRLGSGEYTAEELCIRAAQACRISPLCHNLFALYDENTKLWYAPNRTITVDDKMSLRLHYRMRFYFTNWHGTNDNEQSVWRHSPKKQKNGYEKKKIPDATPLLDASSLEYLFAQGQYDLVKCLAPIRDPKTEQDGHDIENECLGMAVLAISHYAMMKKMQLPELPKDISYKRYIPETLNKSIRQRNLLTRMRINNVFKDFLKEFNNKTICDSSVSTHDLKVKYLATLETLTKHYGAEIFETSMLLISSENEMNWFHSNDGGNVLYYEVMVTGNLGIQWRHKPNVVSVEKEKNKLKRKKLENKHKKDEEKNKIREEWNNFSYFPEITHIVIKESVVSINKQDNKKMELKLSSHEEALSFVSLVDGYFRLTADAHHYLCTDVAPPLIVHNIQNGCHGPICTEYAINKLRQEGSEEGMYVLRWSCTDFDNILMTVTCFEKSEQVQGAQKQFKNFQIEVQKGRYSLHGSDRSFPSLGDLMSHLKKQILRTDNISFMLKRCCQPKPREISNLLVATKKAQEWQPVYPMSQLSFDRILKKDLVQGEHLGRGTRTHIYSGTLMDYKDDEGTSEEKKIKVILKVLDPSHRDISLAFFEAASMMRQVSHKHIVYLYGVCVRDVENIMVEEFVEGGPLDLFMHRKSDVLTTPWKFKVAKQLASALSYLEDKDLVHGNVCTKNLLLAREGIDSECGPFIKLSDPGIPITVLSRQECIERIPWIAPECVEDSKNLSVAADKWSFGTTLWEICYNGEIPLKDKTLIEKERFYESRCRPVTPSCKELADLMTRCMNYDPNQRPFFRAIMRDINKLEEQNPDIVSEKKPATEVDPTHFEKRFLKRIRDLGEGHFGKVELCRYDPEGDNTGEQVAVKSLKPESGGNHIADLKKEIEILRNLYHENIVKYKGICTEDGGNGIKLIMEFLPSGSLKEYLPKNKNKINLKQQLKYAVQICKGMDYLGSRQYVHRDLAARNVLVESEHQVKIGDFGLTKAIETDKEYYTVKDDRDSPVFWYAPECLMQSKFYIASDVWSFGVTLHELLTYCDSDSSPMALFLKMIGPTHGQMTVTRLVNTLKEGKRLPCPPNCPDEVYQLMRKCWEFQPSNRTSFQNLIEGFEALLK

Take `Cc1cc(Nc2ccc3ncn([C@@H]4CCc5ccc(F)cc54)c3n2)[nH]n1.Cl.Cl` [Example 1, 3-[(1R)-6-fluoro-2,3-dihydro-1H-inden-1-yl]-N-(3-methyl-1H-pyrazol-5-yl)-3H-imidazo[4,5-b]pyridin-5-amine dihydrochloride]: the IC50 (usually the point on the concentration scale where inhibition reaches its midpoint) on JAK3 (enzyme assay, 2 micromolar ATP, n=6, read-out: IC50 against JAK3) amounted to 8 nM; at JAK1, 1.7 nM; in the assay with IL-6-STAT3 signaling it was 66 nM. The “selectivity for JAK1 and JAK2 over JAK3 in the enzyme assays” value at JAK3 (enzyme assays, JAK1 and JAK2 versus JAK3) is reported as “greater than four-fold”.

(Values after patent US9062050B2, “Inhibitor of JAK1 and JAK2” (Eli Lilly and Company, priority 2012, dated 2015).)
